Data set [1] can be described thus: Tolerability of chronic treatment in tumor-bearing animals. In kind it is in vivo, athymic nude mice. The protocol:
Chronic treatment at the highest dose in tumor-bearing animals appeared to be well tolerated, with ‹10% reduction in body mass even at the highest dose of 600mg/kg after 4.5 weeks of daily treatment (Supplementary Figure S9d).
A498 cells were injected subcutaneously in the flank of athymic nude mice at 1x10^6/mouse. Once tumor burden reached >50mm^3, SSI-4 treatment was administered at 60, 180, or 600 mg/kg in custom AIN76 animal chow (Research Diets, Inc.), given continuously for 4.5 weeks. Tumor burden was measured using calipers. For the lung tumor study, 2 million ACHN- pSIN Luc Ub Emerald GFP cells were injected intravenously in 50µL of PBS in athymic nude mice. 54 days after implantation, animals began SSI-4 treatment (180 mg/kg, chow, continuous) for 28 days. Once therapy was completed, lung tissue was harvested and analyzed for tumor burden via ex vivo bioluminescent imaging, and hematoxylin and eosin (H&E) staining of formalin-fixed, paraffin-embedded lung tissue. 20× images were obtained using Scanscope XT and Imagescope software.
Supplementary Figure 9: Patient survival correlated with SCD1 gene expression. […] (d) Change in body weight (BW) corrected for individual total weight, recorded during in vivo dose-response to SSI-4 in A498 xenograft model (Figure 3g). […]

In the next data set the test system is ACHN. As to the kind of experiment: Proliferation dose-response IC50, ACHN. The class given is cell-based. As to conditions: Homo sapiens, proliferative IC50, linear regression modeling of dose-response. The procedure: (§1) Error bars indicate standard deviation for n=2 replicates. […] To evaluate inhibition of SCD1 by these molecules, we used LC/MS to quantify changes in SCD1-catalyzed conversion of stearoyl-CoA to oleoyl-CoA in response to drug treatments in vitro using SCD1 protein extracted from murine liver (Figure 3c, Supplementary Figure 2g). […] Synthesis routes and spectral data including NMR and MS are also provided (Supplementary Figures 3-6).
(§2) Cells were seeded at 5,000 cells/well in clear-bottom 96-well plates in triplicate. Drug treatment was applied at 1:1000 in reduced serum conditions (3%). […] Alternatively, cells were plated 2x10^5/well in 12-well plates (Genesee Scientific) in triplicate prior to drug treatment. After 120-hour treatment, cell number was established using a Coulter Particle Counter (Beckman). Oleic acid-albumin (Sigma Aldrich) was added to media at 5µM, and was applied adjuvant to drug treatment. Drug stocks were prepared in DMSO (Sigma) at 1000x. IC50 dosing per cell line was calculated using CalcuSyn analytical software.

The test system of the next data set is 4 ccRCC cell lines. As to the kind of experiment: High-throughput proliferative screen, single point. As to conditions: in at least 2/4 ccRCC cell lines.
For a further data set, the system named is Caki2. Briefly: Proliferation dose-response IC50, Caki2. As to conditions: Homo sapiens, CAKI-2; proliferative IC50, linear regression modeling of dose-response. In kind it is cell-based. The procedure: as §1, §2
Data set [2] in a line: Pharmacokinetics after oral (PO) and intravenous (IV) administration, serum. In kind it is in vivo, rat. As to conditions: male, C57BL/6, mouse; for bioavailability: absolute, from AUC0-last and nominal dose; for Cmax / half-life: po. The procedure:
(e) Maximum serum concentration (Cmax) of SSI-4 before the administration of a second dose. (f) AUC curve to infinite time. (g) Summary of pharmacokinetics for SSI-4, where absolute bioavailability (%) is quantitated with AUC0-last and nominal dose.
Pharmacokinetic assessment was performed for SSI-4 administered to fasted male C57BL/6 mice either intravenously (IV) or by oral gavage (PO) in DMSO:PEG400:water (10:70:20) as a clear solution at 5 mg/mL (IV dosing), and 1,3 or 10 mg/mL (respectively for the PO dosing). Serum analysis was performed by LC-MS-MS.

The test system of a further data set is Caki1. Briefly: Proliferation dose-response IC50, Caki1. The class given is cell-based. The note with it: Homo sapiens, CAKI-1; proliferative IC50, linear regression modeling of dose-response. The procedure: as §1, §2
A further data set relates to 468 known kinases. As to the kind of experiment: Kinome scan (binding). The source says: Induction of the unfolded protein response (UPR) is a known biological response to SCD1 inhibition in tumor cells. […] The addition of exogenous OA was sufficient to reverse the activation of ATF6 (Figure 4b). Moreover, exogenous OA inhibited SSI-(1-4) mediated upregulation of the UPR markers BiP (heat shock 70 kDa protein) and CHOP (damage inducible transcript 3) protein levels in both A498 and ACHN cells (Figure 4c). Collectively these findings confirm that SSI-(1-4) reliably recapitulates the biological responses observed in tumor cells treated with known SCD1 inhibitors. […] Thus, SSI-4 is not predicted to have any major off-target effects through kinase inhibition (Supplementary Figures 7 and 8). […]
of PLS factors. T-value filter (t-value < 2.0) was used to eliminate independent variables overly sensitive to incremental changes from the training set. For structural components, both atom-based and pharmacophore features based were examined.
The regression with m PLS factors, fitted to activities is given as: […]
i =1 , where m = number of PLS factors, b is regression coefficient, vector y represents activity values in the training set. […]
A final Z-filtering mechanism was applied to reduce the dataset to a few select compounds for synthesis and experimental screening by using combined normalized scoring. The final Z-score for each compound was determined as: […]

Where two headings read alike, the source gives them in different places. A value given as a limit tells only on which side of the number the result lay.

Description for 4 ccRCC cell lines: Using linear regression modeling generated from dose-response curves, proliferative inhibitory concentrations (IC50) of these 5 compounds were established (Figure 3b, Supplementary Figure 2b-2f).
(a) High-throughput proliferative screen
of known and novel SCD1 inhibitors in ccRCC cell lines. Dashed line represents a 40% decrease in proliferation as compared to DMSO
included as a known SCD1 inhibitor. Compounds labeled with an asterisk (*) are single-blinded known SCD1 inhibitors. (b-f) Dose-
the proliferative dose-response line graph.

Take `CNC(=O)c1ccnc(NC(=O)N2CCC(Oc3ccccc3Cl)CC2)c1` [SSI-4]: the primary adverse events entry in data set [1] (reversible upon discontinuation of therapy) is “Ocular changes including bilateral squinting”. For the same molecule, the “reduction in body mass” value in data set [1] (tumor-bearing animals, 600mg/kg, 4.5 weeks of daily treatment) is recorded as below 10%. Moreover, the IC50 is 0.003 µM in the data set on ACHN, 0.009 µM in the data set with Caki2 and 0.01 µM in the data set with Caki1. The molecule also registered a decrease in proliferation with 4 ccRCC cell lines above 40%. In addition, the bioavailability amounted to 119% in data set [2] (oral 10 mg/kg), 152% in data set [2] (oral 30 mg/kg) and 212% in data set [2] (oral 100 mg/kg). Moreover, the AUC was 20900 ng·h/mL in data set [2] (oral, 10 mg/kg); 71200 ng·h/mL in data set [2] (oral, 30 mg/kg); 336000 ng·h/mL in data set [2] (oral, 100 mg/kg). Moreover, the Cmax in data set [2] (10 mg/kg) was around 4320 ng/mL; in data set [2] (30 mg/kg) it was around 15900 ng/mL; in data set [2] (100 mg/kg) it was around 43300 ng/mL. Further, the half-life is 3.48 h in data set [2] (10 mg/kg, oral, 10 mg/kg, read-out: T1/2 (converted)); 2.71 h in data set [2] (30 mg/kg, oral, 30 mg/kg, read-out: T1/2 (converted)); 3.94 h in data set [2] (100 mg/kg, oral, 100 mg/kg, read-out: T1/2 (converted)); 2.71 to 3.94 h in data set [2] (100 mg/kg, range over the oral doses 10, 30, 100 mg/kg, read-out: median serum terminal half-life (T1/2)). The “number of 403 non-mutant kinases bound” value is “none” in the data set with 468 known kinases (10 nM) and 1 in the data set with 468 known kinases (100 nM, the kinase bound is CDKL2).

For orientation: IC50 means the concentration at which inhibition is half-maximal. Higher therefore signals a need for much substance. Broadly, the AUC is concentration integrated over time. By Cmax is commonly meant the maximum level reached in the sampled fluid or tissue.

For the origin of these results see paper PMC5787466, “Accelerated bottom-up drug design platform enables the discovery of novel stearoyl-CoA desaturase 1 inhibitors for cancer therapy” (Oncotarget, 2017).
